# Biological target: T1, human CYP2A6 enzyme (cytochrome P450 2A6) (Homo sapiens, UniProt P11509)
# T1 construct: purchased Life Technologies PV6140; host or cells: insect cells (baculosomes)
# T1 sequence (P11509 1-494): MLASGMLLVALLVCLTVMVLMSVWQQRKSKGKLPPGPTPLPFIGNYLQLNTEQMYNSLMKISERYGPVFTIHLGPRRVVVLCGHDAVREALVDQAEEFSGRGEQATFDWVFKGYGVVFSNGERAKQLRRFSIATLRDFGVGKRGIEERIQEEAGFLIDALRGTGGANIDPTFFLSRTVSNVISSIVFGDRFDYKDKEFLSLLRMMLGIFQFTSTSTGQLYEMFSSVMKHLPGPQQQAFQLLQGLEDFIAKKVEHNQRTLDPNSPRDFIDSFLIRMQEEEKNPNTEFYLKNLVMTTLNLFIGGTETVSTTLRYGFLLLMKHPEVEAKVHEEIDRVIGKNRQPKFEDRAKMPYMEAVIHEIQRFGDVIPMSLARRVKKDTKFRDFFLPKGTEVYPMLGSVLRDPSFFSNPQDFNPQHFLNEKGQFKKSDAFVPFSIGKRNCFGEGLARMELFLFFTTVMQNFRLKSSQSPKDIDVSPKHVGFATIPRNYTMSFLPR
# Assay: P450 2A6 inhibition assay (Vivid CYP450 Screening Kit, baculosomes)
# Assay type: biochemical
# Conditions: for IC50 of P450 2A6 inhibition (in words): dose-response curve; for IC50: microsomes from insect cells expressing human CYP2A6, 10 min pre-incubation, 2 h reaction at room temperature, highest concentration in dose-response curves 40 μM, triplicates; for P450 2A6 inhibition activity (in words): screening at 10 μM followed by dose-response curve
# Description: Cytochrome P450 2A6 (Cyp2A6) activity was determined using the Vivid CYP450 Screening Kit (Life Technologies, catalog #PV6140) according to the manufacturer’s instructions. Briefly, a master pre-mix containing baculosomes and regeneration system was prepared using 0.5× Vivid reaction buffer II. The test compounds were dissolved in dimethyl sulfoxide (DMSO) at a concentration of 100 mM. From the stock solutions, each compound was serially diluted in 0.5× Vivid reaction buffer II to make working stocks of 100 μM, 50 μM, 25 μM and so on up to 10 dilutions. It is essential to dilute the DMSO at least 1000-fold when making the working dilutions to prevent its interference with the enzyme activity. An initial high-throughput screening was performed at 10 μM concentration for each compound. For the dose-response curve determination, in a 96-well plate, 40 μL of the diluted solutions of each test compound were added to each well, followed by 50 μl of the master pre-mix, before incubation for 10 min at room temperature. A 10× mixture of Vivid substrate (reconstituted with acetonitrile) and NADP^+ was then prepared. At the end of the incubation period, 10 μL of this solution was added to each well to start the reaction. After 2 hours of incubation in the dark at room temperature, the plate was read at 415 nm on a plate reader (Synergy H1, Biotek). For a positive inhibition control, tranylcypromine (Sigma-Aldrich, cat. #P8511) was used at a final concentration of 100 μM. For a negative (no inhibitor) control, a 1:1000 dilution of pure DMSO in 0.5× Vivid reaction buffer was used. Each concentration in the dose-response curve was set up in triplicates, and each data point was the average of triplicate wells. The % inhibition was calculated using the following equation. %Inhibition=(1−X−B/A−B)*100 where X is the fluorescence observed in presence of the test compound; A is the fluorescence observed in the absence of an inhibitor (no inhibitor control); and B is the fluorescence observed for the positive control. For graphing purposes, percent inhibition vs. anti-log[drug concentration] was plotted. A logistic sigmoidal model was used to fit the data and obtain IC50 values using Graphpad Prism software.
# The syntheses of compounds 1 to 7 [Figure 1] were accomplished using the synthetic Schemes 1 and 2. […] Nicotine-mimicking compounds containing imidazole or methyl substituted imidazole side chains with varied sizes of 1–3 carbon alkyl spacers at position 3 of the pyridine ring were synthesized using Scheme 1 (compounds 1, 4 and 7). Based on our previous findings that acetylenic substituents can interact with the P450 active site amino acids and lead to mechanism-based inhibition, triple bond in the form of propargyl ether was incorporated in a second series of compounds at positions 2, 3 or 4 of the pyridine ring as an ether linkage (compounds 3, 6 and 2, respectively). Positions 2 and 4 were used to investigate whether substituted compounds at those positions would show a difference in their inhibition activities compared to the 3-position substituted compound. A longer spacer in between the propargyl ether and the 4-position of the pyridine ring was introduced to investigate whether a greater flexibility in the positioning of the key functional groups (pyridine ring and the alkyne moiety) in the binding site would be achieved. The Vivid CYP450 Screening Kit (Life Technologies, catalog #PV6140) was used for the P450 2A6 inhibition assays. An initial high-throughput screening was performed at a 10 μM concentration followed by a dose-response curve determination.
# The inhibition studies on our compounds were performed using a Vivid CYP2A6 Kit (Life Technologies, catalog #PV6140). This kit uses microsomes from insect cells stably expressing human CYP2A6 enzyme. […]
IC50 of P450 2A6 inhibition (in words),IC50,P450 2A6 inhibition activity (in words),SMILES
single digit micromolar,9.03 µM,–,Cc1nccn1CCCc1cccnc1 [Compound 1]
–,> 40 µM,much lower inhibition,"C#CCOc1ccncc1 [Compound 2, 4-(prop-2-yn-1-yloxy)pyridine]"
–,–,did not inhibit,"C#CCOc1ccccn1 [Compound 3, 2-(prop-2-yn-1-yloxy)pyridine]"
single digit micromolar,5.02 µM,–,"c1cncc(Cn2ccnc2)c1 [Compound 4, 3-((1H-imidazol-1-yl)methyl)pyridine]"
–,> 40 µM,moderate inhibition activity,"C#CCOCCCc1ccncc1 [Compound 5, 4-(3-(prop-2-yn-1-yloxy)propyl)pyridine]"
single digit micromolar,1 µM,–,"C#CCOCc1cccnc1 [Compound 6, 3-((prop-2-yn-1-yloxy)methyl)pyridine]"
–,> 40 µM,moderate inhibition activity,"Cc1nccn1Cc1cccnc1 [Compound 7, 3-[(2-methyl-1H-imidazol-1-yl)methyl] pyridine]"
